Where two headings read alike, the source gives them in different places.
Assays:
[1] = tested on: Phytophthora infestans; assay type: in vivo
[2] = tested on: Pseudoperonospora cubensis; experiment: Downy mildew in melon (Table 7); conditions: 500 ppm, 7 days after inoculation
Method: Cucumber plants (cv,Dlila) and melon plants (cv.Ein Dor) were raised from seeds in 0.2 liter pots in the greenhouse. At 3 weeks after sowing when had 3 true leaves they were inoculated with sporangial suspension (1000 sporangia/ml) of P.cubensis (resistant to metalaxyl) and placed in 100% relative humidity in the dark for 20 hr. They were then place in a 20° C. growth cabinet for 7 days and assessed for disease development. Percentage leaf area covered with disease symptoms was evaluated and control efficacy was calculated relative to control inoculated plants.

[3] = tested on: Erysiphe graminis tritici; experiment: Powdery mildew in wheat, additional examples (Table 6); assay type: in vivo; conditions: 500 ppm, 7 days after inoculation
Method: Wheat plants (cv.Shafir) were raised from seed in the greenhouse, 30 plants per 0.2 liter pot. When the first leaf was fully developed plants were sprayed with the test solutions and placed in a 20° C. growth cabinet. Two days after spraying plants were dusted with conidia of E. graminis tritict so that about 100 spores were settled on 1 cm^2 of leaf area (both surfaces). […] Control efficacy was calculated relative to number of colonies developed on the control-inoculated untreated plants.

[4] = tested on: Plasmopara viticola; experiment: Downy mildew in grapes (Table 9); assay type: in vivo; conditions: 500 ppm, 10 days after inoculation
Method: Two days after spraying plants were inoculated with sporangial suspension of P.viticola ([…]) onto their lower leaf surface and placed in 100% relative humidity for 20 hr. The plants were then placed in a growth cabinets 20° C. for 10 days. Disease development was assessed according to the abaxial leaf surfaces area covered with fungal sporulation.

[5] = tested on: Phytophthora infestans; assay type: in vivo; remark: listed apart in the source
[6] = potato, 2000 ppm, 3 days after inoculation
[7] = potato, 2000 ppm, 4 days after inoculation
[8] = potato, 2000 ppm, 6 days after inoculation
[9] = potato, 2000 ppm, 8 days after inoculation

Row | Compound | Control efficacy % 7 days [2] [%] | Control efficacy (%) 7d [3] [%] | Control efficacy % 10d [4] [%] | also measured
1 | N-β-methylbenzoyl-1-aminobutyric acid-1-methyl-1-pentyl ester [Example 10] | – | – | – | Control Efficacy % [1, 6]: 100%; Control Efficacy % [1, 7]: 100%; Control Efficacy % [1, 8]: 97%; Control Efficacy % [1, 9]: 87%
2 | CCCCCCCOC(=O)CC(C)NC(=O)c1cccc(C)c1 (centres unmarked) [compound 22, D,L N-3-methylbezoyl-3-aminobutyric acid heptyl ester] | 83 | – | – | –
3 | CCCCCCCCOC(=O)CC(C)NC(=O)c1ccc(C)c(C)c1 (centres unmarked) [compound 54, D,L N-3,4-dimethylbenzoyl-3-aminobutyric acid octyl ester] | – | 69 | – | –
4 | CCCCC(C)OC(=O)CC(C)NC(=O)c1cc(C)cc(C)c1 (centres unmarked) [compound 23, D,L N-3,5-dimethylbezoyl-3-aminobutyric acid 1-methylpentyl ester] | 73 | – | 100 | –
5 | CCCC(C)OC(=O)CC(C)NS(=O)(=O)c1ccccc1 (centres unmarked) [Example 9, N-benzenesulfonyl-3-aminobutyric acid 1-methyl-1-butyl ester] | – | – | – | Control Efficacy % [1, 6]: 99%; Control Efficacy % [1, 7]: 97%; Control Efficacy % [1, 8]: 82%; Control Efficacy % [1, 9]: 62%
6 | COc1ccc(C(=O)NC(C)CC(=O)OCCCl)cc1 (centres unmarked) [compound 28, D,L N-4-methoxybenzoyl-3-aminobutyric acid 2-chloroethyl ester] | – | – | 91 | –
7 | CCCCCCCCOC(=O)CC(C)NS(=O)(=O)c1ccccc1 (racemic) [Example 7, DL-N-benzenesulfonyl-3-aminobutyric acid n-octyl ester] | – | – | – | Control Efficacy % [1, 6]: 100%; Control Efficacy % [1, 7]: 100%; Control Efficacy % [1, 8]: 82%; Control Efficacy % [1, 9]: 77%
8 | Cc1ccc(C(=O)NC(C)CC(=O)OCCCc2ccccc2)cc1 (centres unmarked) [compound 26, D,L N-4-methylbenzoyl-3-aminobutyric acid 3-phenylpropyl ester] | – | – | 99 | –
9 | CCCCCCCOC(=O)CC(C)NC(=O)c1ccccc1C (centres unmarked) [compound 32, D,L N-2-methylbezoyl-3-aminobutyric acid heptyl ester] | 77 | 83 | – | –
10 | CCCCC(C)OC(=O)CC(C)NS(=O)(=O)c1ccc(C)cc1 (centres unmarked) [compound 16, D,L N-4-methylbenzenesulfonyl-3-aminobutyric acid i-methylpentyl ester] | – | 83 | 100 | –
11 | CCCCC(C)OC(=O)CC(C)NC(=O)c1ccc(Cl)cc1 (centres unmarked) [compound 18, D,L N-4-cholrobenzoyl-3-aminobutyric acid 1-methylpentyl ester] | 87 | – | 91 | –
12 | CC(CC(=O)OCCCc1ccccc1)NS(=O)(=O)c1ccccc1 (centres unmarked) [compound 17, D,L N-benzenesulfonyl-3-aminobutyric acid 3-phenylpropyl ester] | 87 | – | 97 | –
13 | CC(CC(=O)OCCC(Cl)(Cl)Cl)NC(=O)c1ccccc1 (centres unmarked) [compound 29, D,L N-benzoyl-3-aminobutyric acid 2-(trichloromethyl)ethyl ester] | 70 | – | 91 | –
14 | CCCCCCCOC(=O)CC(C)NC(=O)c1ccc(C(C)(C)C)cc1 (centres unmarked) [compound 15, D,L N-4-tertbutylbenzoyl-3-aminobutyric acid heptyl ester] | 97 | 74 | 97 | –
15 | CCCCCCCOC(=O)CC(C)NC(=O)c1ccc(C)c(C)c1 (centres unmarked) [compound 45, D,L N-3,4-dimethylbezoyl-3-aminobutyric acid heptyl ester] | – | 71 | – | –
16 | CCCCCCCOC(=O)CC(C)NC(=O)c1c(F)cccc1F (centres unmarked) [compound 14, D,L N-2,6-difluorobenzoyl-3-aminobutyric acid heptyl ester] | – | – | 100 | –
17 | CCC(C)OC(=O)CC(C)NS(=O)(=O)c1ccc(C)cc1 (centres unmarked) [compound 20, D,L N-4-methylbenzenesulfonyl-3-aminobutyric 1-methylpropyll ester] | – | – | 100 | –
18 | CCCCCC(C)OC(=O)CC(C)NC(=O)c1ccc(C)cc1 (centres unmarked) [compound 43, D,L N-4-methylbenzoyl-3-aminobutyric acid 1-methylhexyl ester] | – | 75 | – | –
19 | CC(CC(=O)OCCC(Cl)(Cl)Cl)NS(=O)(=O)c1ccccc1 (centres unmarked) [compound 19, D,L N-benzenesulfonyl-3-aminobutyric acid 2-(trichloromethyl)ethyl ester] | 83 | – | 94 | –
20 | COCC(C)OC(=O)CC(C)NS(=O)(=O)c1ccccc1 (centres unmarked) [compound 31, D,L N-benzenesulfonyl-3-aminobutyric acid 1-methyl-2-methoxyethyl ester] | – | – | 82 | –

Row | Compound | Control efficacy % 7 days [2] [%] | Control efficacy (%) 7d [3] [%] | Control efficacy % 10d [4] [%] | also measured
21 | CCCCC(C)OC(=O)CC(C)NS(=O)(=O)c1ccc(Cl)cc1 (centres unmarked) [compound 50, D,L N-4-chlorobenzensulfonyl-3-aminobutyric acid 1-methylpentyl ester] | – | 92 | – | –
22 | C=CCOC(=O)CC(C)NC(=O)c1ccccc1 (centres unmarked) [compound 42, N-benzoyl-3-aminobutyric acid-2 propenyl ester] | – | 77 | – | –
23 | CCCCCCCOC(=O)CC(C)NC(=O)c1cc(C)cc(C)c1 (centres unmarked) [compound 13, D,L N-3,5-dimethylbezoyl-3-aminobutyric acid heptyl ester] | – | 72 | – | –
24 | CNc1ccccc1C(=O)NC(C)CC(=O)OC (centres unmarked) [compound 47, D,L N-2-methylaminobenzoyl-3-aminobutyric acid methyl ester.] | – | 81 | – | –
25 | CCCCCCCOC(=O)CC(C)NC(=O)c1c(Cl)cccc1Cl (centres unmarked) [compound 24, D,L N-2,6-dichlorobenzoyl-3-aminobutyric acid heptyl ester] | – | – | 100 | –
26 | CCC(C)OC(=O)CC(C)NS(=O)(=O)c1ccccc1 (centres unmarked) [Example 8, N-benzenesulfonyl-3-aminobutyric acid-sec butyl ester] | – | – | – | Control Efficacy % [1, 6]: 100%; Control Efficacy % [1, 7]: 92%; Control Efficacy % [1, 8]: 87%; Control Efficacy % [1, 9]: 50%
27 | CCCCCCCCCC(C)OC(=O)CC(C)NC(=O)c1ccc(C)cc1 (centres unmarked) [compound 44, D,L N-4-methylbenzoyl-3-aminobutyric acid 1-methyldecanyl ester] | – | 74 | – | –
28 | CC(CC(=O)Nc1ccccc1)NS(=O)(=O)c1ccccc1 (racemic) [Example 2, D,L-N-benzensulfonyl-3-aminobutyranilide] | – | – | – | Control Efficacy % ([1]; Potato, 14.8.96, 2000 ppm): 74%; Control Efficacy % ([1]; Potato, 17.7.096, 500 ppm): 45%; Control Efficacy % ([1]; Potato, 17.7.096, 2000 ppm): 81%; Control Efficacy % ([1]; Potato, 26.7.96, 500 ppm): 42%; Control Efficacy % ([1]; Potato, 26.7.96, 2000 ppm): 68%; Control Efficacy % ([5]; Tomato, 12.7.96, 500 ppm): 85%; Control Efficacy % ([5]; Tomato, 12.7.96, 2000 ppm): 85%; Control Efficacy % ([5]; Tomato, 14.8/96, 2000 ppm): 83%
29 | CCCCCCCOC(=O)CC(C)NS(=O)(=O)c1ccc(C)cc1 (centres unmarked) [compound 34, D,L N-4-methylbenzenesulfonyl-3-aminobutyric acid heptyl ester] | 70 | – | – | –
30 | CCCCCCCOC(=O)CC(C)NC(=O)c1ccc(Cl)cc1 (centres unmarked) [compound 30, D,L N-4-cholrobenzoyl-3-aminobutyric acid heptyl ester] | – | – | 91 | –
31 | CCCOC(=O)CC(C)NS(=O)(=O)c1ccccc1 (centres unmarked) [compound 41, D,L N— benzenesulfonyl-3-aminobutyric acid propyl ester] | – | 77 | – | –
32 | Cc1ccc(S(=O)(=O)NC(C)CC(=O)OCCBr)cc1 (centres unmarked) [compound 33, D,L N-4-methylbenzenesulfonyl-3-aminobutyric acid 2-bromoethyl ester] | 75 | – | – | –
33 | CC(CC(=O)OCCCc1ccccc1)NS(=O)(=O)c1ccccc1 (centres unmarked) [compound 51, D,L N-benzensulphonyl-3-aminobutyric acid 3-phenylpropyl ester] | 87 | – | 97 | –
34 | Cc1cc(C)cc(C(=O)NC(C)CC(=O)OCCCl)c1 (centres unmarked) [compound 27, D,L N-3,5-dimethylbezoyl-3-aminobutyric acid 2-chloroethyl ester] | 73 | – | 97 | –
35 | CCCCCCCOC(=O)CC(C)NC(=O)c1ccc(OC)cc1 (centres unmarked) [compound 12, D,L N-4-methoxybenzoyl-3-aminobutyric acid heptyl ester] | 100 | 85 | – | –
36 | CCCC(C)COC(=O)CC(C)NC(=O)c1c(Cl)cccc1Cl (centres unmarked) [compound 25, D,L N-2,6-dichlorobenzoyl-3-aminobutyric acid 2-methylpentyl ester] | 80 | – | 100 | –
37 | CCCCC(C)OC(=O)CC(C)NC(=O)c1ccc(C)cc1 (centres unmarked) [compound 46, D,L N-4-methylbezoyl-3-aminobutyric acid 1-methylpentyl ester] | – | 69 | – | –
38 | CC(CC(=O)Oc1cc(Cl)cc(Cl)c1)NS(=O)(=O)c1ccccc1 (centres unmarked) [compound 53, D,L N-benzensulfonyl-3-aminobutyric acid 3,5-dichlorophenyl ester] | – | 100 | – | –
39 | CC(CC(=O)OCCCl)NC(=O)c1ccccc1 (racemic) [Example 11, DL-N-benzoyl-3-aminobutyric acid 2-chloroethyl ester] | – | – | – | Control Efficacy % [1, 6]: 95%; Control Efficacy % [1, 7]: 92%; Control Efficacy % [1, 8]: 82%; Control Efficacy % [1, 9]: 70%
